Laboratory results reported in ChEMBL document CHEMBL1201862, “PubChem BioAssay data set” (2004).
“And” between values parts separate entries of the source, which are not always exact repeats. Identical values can stand only once.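 Protocol summary: plate cells (96-well), add compound at 5 concentrations, incubate 48 h, interpolate endpoints linearly. GI50 is the concentration that inhibits growth by half.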 The source made the active and inactive calls. Rule as the data show it: active = GI50 up to about 1.1 µM and inactive = higher.

Tests used:
Assay in all cases: NCI tumour cell line growth inhibition, 48 h
A549 = test system: A549
CCRF-CEM = test system: CCRF-CEM
COLO 205 = test system: COLO 205
MOLT-4 = test system: MOLT-4
M14 = test system: M14
786-0 = test system: 786-0
SK-MEL-2 = test system: SK-MEL-2
HL-60 = test system: HL-60
OVCAR-5 = test system: OVCAR-5
NCI-H23 = test system: NCI-H23
SF-295 = test system: SF-295
SF-268 = test system: SF-268
KM12 = test system: KM12
BT-549 = test system: BT-549
SW-620 = test system: SW-620
SK-MEL-28 = test system: SK-MEL-28
A498 = test system: A498
T47D = test system: T47D
Malme-3M = test system: Malme-3M

Measured: GI50

CC1=CC(=O)/C(=C/n2c(=S)[nH]c3cc(C)ccc32)C(=O)O1
inactive: A549 > 100 µM | CCRF-CEM 98.9 µM | COLO 205 > 100 µM | MOLT-4 > 100 µM | M14 > 100 µM | 786-0 > 100 µM | SK-MEL-2 > 100 µM | HL-60 55.6 µM | OVCAR-5 > 100 µM | NCI-H23 > 100 µM | SF-295 > 100 µM | SF-268 > 100 µM | KM12 > 100 µM | BT-549 > 100 µM | SW-620 > 100 µM | SK-MEL-28 > 100 µM

CCOC(=O)c1c(-c2ccc(O)c(OC)c2)c(C#N)c(=S)n(C2OC(COC(C)=O)C(OC(C)=O)C(OC(C)=O)C2OC(C)=O)c1-c1ccccc1 (centres undefined)
inactive: A549 > 100 µM and 94.4 µM | CCRF-CEM 58.7 µM and 45.4 µM | COLO 205 43.3 µM and 30.3 µM | MOLT-4 48.9 µM and 31.9 µM | M14 82.4 µM | 786-0 71.6 µM and 52.5 µM | HL-60 > 100 µM | OVCAR-5 > 100 µM | NCI-H23 43.7 µM and 61.1 µM | SF-295 > 100 µM | SF-268 > 100 µM and 70.6 µM | KM12 45.4 µM and 50.8 µM | BT-549 57.7 µM and 32.6 µM | SW-620 > 100 µM | A498 > 100 µM | SK-MEL-28 58.2 µM

CCOP(=O)(/C=C/n1ccc(N)nc1=O)OCC
inactive: A549 > 100 µM | CCRF-CEM > 100 µM | COLO 205 > 100 µM | MOLT-4 > 100 µM | M14 > 100 µM | 786-0 > 100 µM | SK-MEL-2 > 100 µM | HL-60 > 100 µM | T47D > 100 µM | OVCAR-5 > 100 µM | NCI-H23 > 100 µM | SF-295 > 100 µM | SF-268 > 100 µM | KM12 > 100 µM | BT-549 > 100 µM | SW-620 > 100 µM | A498 > 100 µM | SK-MEL-28 > 100 µM

CCN(CC)c1ccc2cc(-c3nnc(-c4ccccc4O)o3)c(=O)oc2c1
inactive: A549 13.6 µM | CCRF-CEM 2.37 µM | COLO 205 7.66 µM | MOLT-4 3.03 µM | M14 11.1 µM | 786-0 8.99 µM | SK-MEL-2 14.5 µM | HL-60 4.56 µM | OVCAR-5 16.2 µM | Malme-3M 14.9 µM | NCI-H23 8.93 µM | SF-295 11.1 µM | SF-268 6.92 µM | KM12 12.1 µM | BT-549 5.75 µM | SW-620 5.75 µM | A498 13 µM | SK-MEL-28 11.7 µM

CCOc1ccc2nc(NC(NC(=O)c3cccnc3)(C(F)(F)F)C(F)(F)F)sc2c1
inactive: A549 31.4 µM | CCRF-CEM 17.1 µM | COLO 205 34.1 µM | MOLT-4 20.4 µM | M14 34.1 µM | 786-0 26.5 µM | SK-MEL-2 38.5 µM | HL-60 32.4 µM | T47D 21 µM | OVCAR-5 25.6 µM | Malme-3M 51.1 µM | NCI-H23 22.8 µM | SF-295 42 µM | SF-268 56.8 µM | KM12 29.3 µM | BT-549 30.2 µM | SW-620 46.1 µM | SK-MEL-28 35.2 µM

NC(=S)Nc1nc(=S)[nH]c2[nH]ccc12
inactive: A549 > 100 µM | CCRF-CEM 24.2 µM | COLO 205 82.4 µM | MOLT-4 21.1 µM | M14 > 100 µM | 786-0 > 100 µM | SK-MEL-2 > 100 µM | HL-60 19.1 µM | T47D 58.2 µM | OVCAR-5 > 100 µM | NCI-H23 > 100 µM | SF-295 65.5 µM | SF-268 20.2 µM | KM12 26.2 µM | BT-549 93.8 µM | SW-620 > 100 µM | A498 > 100 µM | SK-MEL-28 > 100 µM

COc1ccc(C2Oc3c(cccc3OC)C=C2[N+](=O)[O-])cc1OC (centres undefined)
inactive: A549 14.7 µM | CCRF-CEM 1.58 µM | COLO 205 13.7 µM | MOLT-4 2.85 µM | M14 3.82 µM | 786-0 3.74 µM | HL-60 2.62 µM | T47D 12.2 µM | OVCAR-5 13.8 µM | Malme-3M 7.59 µM | NCI-H23 4.41 µM | SF-295 20.6 µM | SF-268 15.9 µM | KM12 9.98 µM | BT-549 5.47 µM | SK-MEL-28 4.22 µM

O=c1cnn(C2OC(C(O)CO)C(O)C2O)c(=O)[nH]1 (centres undefined)
inactive: A549 > 100 µM | CCRF-CEM > 100 µM | COLO 205 > 100 µM | MOLT-4 > 100 µM | M14 > 100 µM | 786-0 > 100 µM | SK-MEL-2 > 100 µM | HL-60 > 100 µM | T47D > 100 µM | OVCAR-5 > 100 µM | Malme-3M > 100 µM | NCI-H23 > 100 µM | SF-268 > 100 µM | KM12 > 100 µM | BT-549 > 100 µM | SW-620 > 100 µM | SK-MEL-28 > 100 µM

COc1ccc(NCc2cccc3c(=O)c4ccc(Cl)cc4oc23)cc1
inactive: A549 > 100 µM | CCRF-CEM > 100 µM | COLO 205 > 100 µM | MOLT-4 > 100 µM | M14 > 100 µM | 786-0 > 100 µM | SK-MEL-2 > 100 µM | T47D > 100 µM | OVCAR-5 > 100 µM | Malme-3M > 100 µM | NCI-H23 > 100 µM | SF-295 > 100 µM | KM12 > 100 µM | BT-549 > 100 µM | SW-620 > 100 µM | A498 > 100 µM | SK-MEL-28 > 100 µM

Cc1ccc2c(c1)[nH]c(=S)n2C=C1C(=O)CC(C)(C)CC1=O
inactive: A549 > 100 µM | CCRF-CEM > 100 µM | COLO 205 > 100 µM | MOLT-4 > 100 µM | M14 > 100 µM | 786-0 > 100 µM | SK-MEL-2 > 100 µM | HL-60 > 100 µM | T47D > 100 µM | OVCAR-5 > 100 µM | NCI-H23 > 100 µM | SF-295 > 100 µM | SF-268 > 100 µM | KM12 > 100 µM | BT-549 > 100 µM | SW-620 > 100 µM | A498 > 100 µM | SK-MEL-28 > 100 µM

O=C(NNc1nc(-c2ccccc2)cs1)Nc1ccccc1
inactive: A549 19.5 µM | CCRF-CEM 34.3 µM | COLO 205 19.6 µM | MOLT-4 27.7 µM | M14 28.5 µM | 786-0 30.2 µM | SK-MEL-2 16.1 µM | T47D 23.2 µM | OVCAR-5 29.4 µM | Malme-3M 39.5 µM | NCI-H23 20.2 µM | SF-295 28.1 µM | SF-268 27.5 µM | KM12 32.9 µM | BT-549 25.3 µM | SW-620 37.6 µM | SK-MEL-28 30.4 µM

O=C1/C(=C2/C(=O)N(c3ccccc3)c3ccccc32)Nc2ccccc21
inactive: A549 37.2 µM | CCRF-CEM 92.3 µM | COLO 205 24.7 µM | MOLT-4 35.2 µM | M14 38.1 µM | 786-0 15 µM | SK-MEL-2 35.5 µM | OVCAR-5 51.1 µM | Malme-3M 73.1 µM | NCI-H23 63.5 µM | SF-295 48.4 µM | SF-268 36.4 µM | KM12 > 100 µM | BT-549 45 µM | SW-620 63.1 µM | A498 24.5 µM | SK-MEL-28 > 100 µM
active: T47D 0.571 µM

CC(O)C1(CNc2cc(Cl)nc(N)n2)CCC1 (centres undefined)
inactive: A549 > 100 µM | CCRF-CEM > 100 µM | MOLT-4 > 100 µM | 786-0 > 100 µM | SK-MEL-2 > 100 µM | HL-60 > 100 µM | T47D 33.3 µM | OVCAR-5 > 100 µM | Malme-3M > 100 µM | NCI-H23 > 100 µM | SF-295 > 100 µM | KM12 > 100 µM | BT-549 > 100 µM | SW-620 > 100 µM | SK-MEL-28 > 100 µM

O=C(Nc1ccc(Cl)cc1)[C-](C(=O)c1ccc(Br)cc1)[n+]1cccc(-c2ccc(Cl)cc2)n1
inactive: A549 3.72 µM | COLO 205 4.15 µM | MOLT-4 5.05 µM | M14 3.68 µM | 786-0 2.56 µM | SK-MEL-2 3.57 µM | T47D 1.64 µM | OVCAR-5 4.24 µM | Malme-3M 2.86 µM | NCI-H23 2.37 µM | SF-295 2.6 µM | SF-268 4.62 µM | KM12 3.1 µM | BT-549 2.54 µM | SW-620 4.3 µM | A498 9.71 µM | SK-MEL-28 8.77 µM

CCN(CC)CCOCC1CCCN2CCCCC12 (centres undefined)
inactive: A549 > 100 µM | CCRF-CEM > 100 µM | COLO 205 > 100 µM | MOLT-4 > 100 µM | M14 > 100 µM | 786-0 > 100 µM | SK-MEL-2 > 100 µM | HL-60 > 100 µM | T47D > 100 µM | OVCAR-5 > 100 µM | Malme-3M > 100 µM | NCI-H23 > 100 µM | SF-295 > 100 µM | SF-268 > 100 µM | KM12 > 100 µM | BT-549 > 100 µM | SW-620 > 100 µM | SK-MEL-28 > 100 µM

O=C(c1cc(Cl)ccc1Cl)N1CCN(c2cccc(Cl)c2)CC1
inactive: A549 11 µM | CCRF-CEM 12.2 µM | MOLT-4 8.51 µM | M14 22.2 µM | 786-0 15.3 µM | HL-60 38.4 µM | T47D 10.7 µM | OVCAR-5 26.4 µM | Malme-3M 11.1 µM | NCI-H23 32.9 µM | SF-295 7.55 µM | SF-268 27.9 µM | KM12 6.07 µM | BT-549 8.61 µM | SW-620 24.2 µM | A498 12.7 µM | SK-MEL-28 15.6 µM
